Assay results from patent publication US4124703A, “Luliberin analogs” (Imperial Chemical Industries Limited, priority 1976, dated 1978).
Non-standard residues stand in square brackets, D forms with d. Residues, ends and D or L forms follow the SMILES beside them. pGlu = O=C1CC[C@@H](C(=O)O)N1; azaGly = NNC(=O)O

Legend:
[1] = overt toxic effects at multiples of the minimum active dose; type: in vivo; conditions: dosed at 20 times its minimum effective dose
[2] = test system: luliberin; conditions: literature: Coy et al., Molecular and Cellular Endocrinology, 1976, 5, 201-208; cited from earlier work

| Compound | overt toxic effects [1] | luliberin antagonist properties [2] |
| --- | --- | --- |
| CC(C)C[C@H](NC(=O)[C@@H](Cc1ccccc1)NC(=O)[C@H](Cc1ccc(O)cc1)NC(=O)[C@H](CO)NC(=O)[C@H](Cc1c[nH]c2ccccc12)NC(=O)[C@@H](Cc1ccccc1)NC(=O)[C@@H]1CCC(=O)N1)C(=O)N[C@@H](CCCNC(=N)N)C(=O)N1CCC[C@H]1C(=O)NNC(N)=O [Example 1, L-pyroglutamyl-D-phenylalanyl-L-tryptophyl-L-seryl-L-tyrosyl-D-phenylalanyl-L-leucyl-L-arginyl-L-prolylazaglycine amide] ([pGlu][dF]WSY[dF]LRP[azaGly]-NH2) | no overt toxic effects |  |
| [D-Phe^2, D-Phe^6 ] luliberin |  | has luliberin antagonist properties |
